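Each compound was tested at five concentrations against cells in 96-well plates for 48 hours. TGI is the concentration that stops growth completely.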
Tests used:
Test in all cases: NCI-60 cell line screen, 48 h
UACC-257 melanoma = system: UACC-257 melanoma
SF-539 CNS = system: SF-539 CNS
UO-31 renal = system: UO-31 renal
SNB-19 CNS = system: SNB-19 CNS
DMS 114 small cell lung = system: DMS 114 small cell lung
SK-MEL-28 melanoma = system: SK-MEL-28 melanoma
NCI-H226 lung = system: NCI-H226 lung
SF-268 CNS = system: SF-268 CNS
NCI-H460 lung = system: NCI-H460 lung
XF 498 CNS = system: XF 498 CNS
M19-MEL melanoma = system: M19-MEL melanoma
KM12 colon = system: KM12 colon
IGROV1 ovarian = system: IGROV1 ovarian
HT29 colon = system: HT29 colon
786-0 renal = system: 786-0 renal
CCRF-CEM leukemia = system: CCRF-CEM leukemia
OVCAR-8 ovarian = system: OVCAR-8 ovarian
SN12C renal = system: SN12C renal
OVCAR-5 ovarian = system: OVCAR-5 ovarian
SNB-75 CNS = system: SNB-75 CNS
OVCAR-3 ovarian = system: OVCAR-3 ovarian
HL-60(TB) leukemia = system: HL-60(TB) leukemia
SR leukemia = system: SR leukemia
DLD-1 colon = system: DLD-1 colon
HCT-15 colon = system: HCT-15 colon
SK-MEL-5 melanoma = system: SK-MEL-5 melanoma
EKVX NSCLC = system: EKVX NSCLC
A549 NSCLC = system: A549 NSCLC
MOLT-4 leukemia = system: MOLT-4 leukemia
LOX IMVI melanoma = system: LOX IMVI melanoma
SF-295 CNS = system: SF-295 CNS
KM20L2 colon = system: KM20L2 colon
SK-OV-3 ovarian = system: SK-OV-3 ovarian
UACC-62 melanoma = system: UACC-62 melanoma
NCI-H522 lung = system: NCI-H522 lung
SK-MEL-2 melanoma = system: SK-MEL-2 melanoma
RXF 393 renal = system: RXF 393 renal
U251 CNS = system: U251 CNS
NCI-H23 lung = system: NCI-H23 lung
TK-10 renal = system: TK-10 renal
COLO 205 colon = system: COLO 205 colon
SW-620 colon = system: SW-620 colon
MALME-3M melanoma = system: MALME-3M melanoma
CAKI-1 renal = system: CAKI-1 renal
ACHN renal = system: ACHN renal
HCT-116 colon = system: HCT-116 colon
DMS 273 small cell lung = system: DMS 273 small cell lung
HCC-2998 colon = system: HCC-2998 colon
A498 renal = system: A498 renal
SNB-78 CNS = system: SNB-78 CNS
HOP-62 NSCLC = system: HOP-62 NSCLC
OVCAR-4 ovarian = system: OVCAR-4 ovarian
RPMI-8226 leukemia = system: RPMI-8226 leukemia
M14 melanoma = system: M14 melanoma
HOP-92 NSCLC = system: HOP-92 NSCLC
LXFL 529 NSCLC = system: LXFL 529 NSCLC

Measured: TGI

Nc1nc(N)c2ncn(CCOC(c3ccccc3)P(=O)(O)O)c2n1 (stereo unspecified)
not listed: HOP-62 NSCLC | OVCAR-4 ovarian | RPMI-8226 leukemia | M14 melanoma | HOP-92 NSCLC | LXFL 529 NSCLC
> 100 µM: all other assays above

CC(C)(C)[C@H]1CO[C@]2(c3ccccc3)[C@@H]3C[C@@H]3C(=O)N12
not listed: CCRF-CEM leukemia | MOLT-4 leukemia | HCT-116 colon | A498 renal | SNB-78 CNS
> 100 µM: all other assays above

Reference: PubChem BioAssay (NCI)
